The source of these data is article PMC10799341, “Carnosol ameliorated cancer cachexia-associated myotube atrophy by targeting P5CS and its downstream pathways” (Frontiers in Pharmacology, 2024).

In one assay the target is T1, GFP-Aldh18a1 (P5CS) (Mus musculus, UniProt Q9Z110).
T1 construct: GFP fusion from plasmid, tag kept; expressed in 293T cells, used as NP40 lysate
T1 sequence (Q9Z110 1-795): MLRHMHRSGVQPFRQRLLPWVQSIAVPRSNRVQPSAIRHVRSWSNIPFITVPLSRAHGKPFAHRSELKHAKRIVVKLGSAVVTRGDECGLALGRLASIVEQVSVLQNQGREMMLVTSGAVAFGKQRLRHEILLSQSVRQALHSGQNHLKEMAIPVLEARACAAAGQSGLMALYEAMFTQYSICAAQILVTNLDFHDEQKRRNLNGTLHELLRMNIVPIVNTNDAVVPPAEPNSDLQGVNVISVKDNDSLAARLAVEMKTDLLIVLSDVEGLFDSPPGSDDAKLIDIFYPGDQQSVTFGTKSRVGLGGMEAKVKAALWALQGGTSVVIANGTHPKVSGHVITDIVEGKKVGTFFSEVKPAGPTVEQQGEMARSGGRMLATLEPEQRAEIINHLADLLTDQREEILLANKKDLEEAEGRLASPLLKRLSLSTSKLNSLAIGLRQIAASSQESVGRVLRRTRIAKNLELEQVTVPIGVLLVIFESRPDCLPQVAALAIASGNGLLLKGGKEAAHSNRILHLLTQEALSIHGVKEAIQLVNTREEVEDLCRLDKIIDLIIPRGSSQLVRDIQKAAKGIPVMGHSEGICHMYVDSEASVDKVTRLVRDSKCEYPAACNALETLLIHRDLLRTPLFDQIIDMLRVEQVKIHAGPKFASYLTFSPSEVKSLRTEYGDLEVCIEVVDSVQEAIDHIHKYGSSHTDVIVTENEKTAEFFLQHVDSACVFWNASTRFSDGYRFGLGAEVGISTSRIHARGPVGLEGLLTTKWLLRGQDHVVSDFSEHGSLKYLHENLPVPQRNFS
Kind of assay: microscale thermophoresis (Monolith NT.[…]). In kind it is binding.

In assay [1] the target is T2, P5CS (Aldh18a1), endogenous in C2C12 myotubes (Mus musculus, UniProt Q9Z110).
T2 construct: native endogenous protein in C2C12 myotubes; no tag; detected by Western blot
T2 sequence (Q9Z110 1-795): T1 sequence (Q9Z110 1-795)
Kind of assay: CETSA, Western blot. In kind it is cell-based. To be noted: intact C2C12 myotubes, 20 μM carnosol, 1 h; NP40 lysate heated 5 min.

Assay [2] deals with T3, P5CS, endogenous in H9c2 cardiomyocytes (Rattus norvegicus, UniProt A0A8I6AAN3).
T3 construct: gene Aldh18a1; native endogenous protein in H9c2 cell lysate; no tag; detected by Western blot
T3 sequence (A0A8I6AAN3 1-795): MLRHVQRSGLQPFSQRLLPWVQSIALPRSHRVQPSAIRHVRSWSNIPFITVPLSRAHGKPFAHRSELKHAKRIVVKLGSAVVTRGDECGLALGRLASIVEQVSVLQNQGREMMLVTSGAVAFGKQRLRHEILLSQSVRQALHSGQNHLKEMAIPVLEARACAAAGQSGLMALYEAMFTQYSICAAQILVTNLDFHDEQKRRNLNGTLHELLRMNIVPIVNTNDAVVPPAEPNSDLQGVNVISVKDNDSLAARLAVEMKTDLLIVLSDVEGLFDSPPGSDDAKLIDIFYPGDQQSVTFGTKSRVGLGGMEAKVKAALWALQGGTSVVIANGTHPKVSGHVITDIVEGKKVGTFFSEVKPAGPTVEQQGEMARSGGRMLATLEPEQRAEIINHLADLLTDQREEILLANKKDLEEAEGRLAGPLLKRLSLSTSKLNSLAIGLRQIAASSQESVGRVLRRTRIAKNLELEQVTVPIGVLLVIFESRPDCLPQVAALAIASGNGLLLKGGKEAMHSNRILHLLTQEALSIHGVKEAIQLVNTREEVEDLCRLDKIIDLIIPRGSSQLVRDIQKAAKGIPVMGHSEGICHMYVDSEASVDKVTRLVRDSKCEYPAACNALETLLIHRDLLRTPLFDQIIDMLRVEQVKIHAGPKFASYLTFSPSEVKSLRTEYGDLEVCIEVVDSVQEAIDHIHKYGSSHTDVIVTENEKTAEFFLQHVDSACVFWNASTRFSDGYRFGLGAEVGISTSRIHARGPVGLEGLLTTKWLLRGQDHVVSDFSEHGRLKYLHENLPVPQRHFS
Kind of assay: CETSA, Western blot. In kind it is biochemical. To be noted: H9c2 cell lysate, 20 μM carnosol, 30 min room temperature then 1 h at 4 °C; heated 5 min.

For the compound `CC(C)c1cc2c(c(O)c1O)[C@@]13CCCC(C)(C)[C@@H]1C[C@@H]2OC3=O` [carnosol], on GFP-Aldh18a1 (P5CS), the Kd amounted to 17.4 µM. Also, the thermal stability result in assay [1] is “the thermal stability of P5CS in C2C12 was improved after the incubation of myotubes with carnosol”; in assay [2], “H9c2 cardiomyocytes also showed similar results that carnosol increased the thermal stability of P5CS”.
